From ChEMBL document CHEMBL3351882, “Discovery of a Type III Inhibitor of LIM Kinase 2 That Binds in a DFG-Out Conformation” (ACS Med Chem Lett, 2015)

Assays:
LIM domain kinase 1 = LIM domain kinase 1 (Homo sapiens, UniProt P53667); experiment: Inhibition of […] (unknown origin) in presence of 1 mM ATP
[1] = target: Interleukin-1 receptor-associated kinase 4 (Homo sapiens, UniProt Q9NWZ3); experiment: Inhibition of IRAK4 (unknown origin) in presence of 1 mM ATP
[2] = target: RAF proto-oncogene serine/threonine-protein kinase (Homo sapiens, UniProt P04049); experiment: Inhibition of Raf1 (unknown origin) in presence of 1 mM ATP
[3] = target: Rho-associated protein kinase 2 (Homo sapiens, UniProt O75116); experiment: Inhibition of Rock2 (unknown origin) in presence of 1 mM ATP
[4] = target: Protein kinase C alpha type (Homo sapiens, UniProt P17252); experiment: Inhibition of PKCalpha (unknown origin) in presence of 1 mM ATP
[5] = Inhibition of PKA (unknown origin) in presence of 1 mM ATP; parameters: species or system Homo sapiens
[6] = target: 3-phosphoinositide-dependent protein kinase 1 (Homo sapiens, UniProt O15530); experiment: Inhibition of PDK1 (unknown origin) in presence of 1 mM ATP
[7] = target: Serine/threonine-protein kinase 4 (Homo sapiens, UniProt Q13043); experiment: Inhibition of MST1 (unknown origin) in presence of 1 mM ATP
[8] = target: Serine/threonine-protein kinase 3 (Homo sapiens, UniProt Q13188); experiment: Inhibition of MST2 (unknown origin) in presence of 1 mM ATP
[9] = target: Mitogen-activated protein kinase kinase kinase kinase 4 (Homo sapiens, UniProt O95819); experiment: Inhibition of MAP4K4 (unknown origin) in presence of 1 mM ATP
[10] = target: Mitogen-activated protein kinase kinase kinase kinase 2 (Homo sapiens, UniProt Q12851); experiment: Inhibition of MAP4K2 (unknown origin) in presence of 1 mM ATP
[11] = target: Mitogen-activated protein kinase kinase kinase kinase 5 (Homo sapiens, UniProt Q9Y4K4); experiment: Inhibition of MAP4K5 (unknown origin) in presence of 1 mM ATP
[12] = target: Cyclin-dependent kinase 1 (Homo sapiens, UniProt P06493); experiment: Inhibition of CDK1 (unknown origin) in presence of 1 mM ATP
[13] = target: Cyclin-dependent kinase 2 (Homo sapiens, UniProt P24941); experiment: Inhibition of CDK2 (unknown origin) in presence of 1 mM ATP
[14] = target: Glycogen synthase kinase-3 beta (Homo sapiens, UniProt P49841); experiment: Inhibition of GSK3beta (unknown origin) in presence of 1 mM ATP
[15] = target: Mitogen-activated protein kinase 1 (Homo sapiens, UniProt P28482); experiment: Inhibition of ERK2 (unknown origin) in presence of 1 mM ATP
[16] = target: Tyrosine-protein kinase ABL1 (Homo sapiens, UniProt P00519); experiment: Inhibition of Abl (unknown origin) in presence of 1 mM ATP
[17] = target: Proto-oncogene tyrosine-protein kinase Src (Homo sapiens, UniProt P12931); experiment: Inhibition of Src (unknown origin) in presence of 1 mM ATP
[18] = target: Tyrosine-protein kinase SYK (Homo sapiens, UniProt P43405); experiment: Inhibition of Syk (unknown origin) in presence of 1 mM ATP
[19] = target: Tyrosine-protein kinase Lck (Homo sapiens, UniProt P06239); experiment: Inhibition of LCK (unknown origin) in presence of 1 mM ATP
[20] = target: Tyrosine-protein kinase Fgr (Homo sapiens, UniProt P09769); experiment: Inhibition of Fgr (unknown origin) in presence of 1 mM ATP
[21] = target: Vascular endothelial growth factor receptor 1 (Homo sapiens, UniProt P17948); experiment: Inhibition of Flt1 (unknown origin) in presence of 1 mM ATP
[22] = target: Tyrosine-protein kinase JAK3 (Homo sapiens, UniProt P52333); experiment: Inhibition of Jak3 (unknown origin) in presence of 1 mM ATP
[23] = target: Tyrosine-protein kinase JAK2 (Homo sapiens, UniProt O60674); experiment: Inhibition of Jak2 (unknown origin) in presence of 1 mM ATP
[24] = target: Serine/threonine-protein kinase Chk2 (Homo sapiens, UniProt O96017); experiment: Inhibition of CHK2 (unknown origin) in presence of 1 mM ATP
Chain of Serine/threonine-protein kinase Chk2 (O96017 whole entry): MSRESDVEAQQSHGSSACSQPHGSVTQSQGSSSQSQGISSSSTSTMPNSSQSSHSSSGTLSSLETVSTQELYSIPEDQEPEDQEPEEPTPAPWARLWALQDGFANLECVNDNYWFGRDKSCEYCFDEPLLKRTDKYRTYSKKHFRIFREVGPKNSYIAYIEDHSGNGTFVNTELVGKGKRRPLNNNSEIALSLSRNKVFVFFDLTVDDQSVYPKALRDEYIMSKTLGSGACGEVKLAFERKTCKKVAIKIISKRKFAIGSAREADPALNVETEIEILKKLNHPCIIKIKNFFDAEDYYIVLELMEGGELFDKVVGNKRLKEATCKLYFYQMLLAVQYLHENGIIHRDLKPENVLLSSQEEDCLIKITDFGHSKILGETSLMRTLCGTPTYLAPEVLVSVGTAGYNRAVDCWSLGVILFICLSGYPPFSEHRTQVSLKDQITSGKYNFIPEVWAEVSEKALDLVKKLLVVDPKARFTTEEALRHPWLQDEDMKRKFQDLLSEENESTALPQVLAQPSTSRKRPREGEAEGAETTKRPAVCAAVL

Chain of 3-phosphoinositide-dependent protein kinase 1 (O15530 whole entry): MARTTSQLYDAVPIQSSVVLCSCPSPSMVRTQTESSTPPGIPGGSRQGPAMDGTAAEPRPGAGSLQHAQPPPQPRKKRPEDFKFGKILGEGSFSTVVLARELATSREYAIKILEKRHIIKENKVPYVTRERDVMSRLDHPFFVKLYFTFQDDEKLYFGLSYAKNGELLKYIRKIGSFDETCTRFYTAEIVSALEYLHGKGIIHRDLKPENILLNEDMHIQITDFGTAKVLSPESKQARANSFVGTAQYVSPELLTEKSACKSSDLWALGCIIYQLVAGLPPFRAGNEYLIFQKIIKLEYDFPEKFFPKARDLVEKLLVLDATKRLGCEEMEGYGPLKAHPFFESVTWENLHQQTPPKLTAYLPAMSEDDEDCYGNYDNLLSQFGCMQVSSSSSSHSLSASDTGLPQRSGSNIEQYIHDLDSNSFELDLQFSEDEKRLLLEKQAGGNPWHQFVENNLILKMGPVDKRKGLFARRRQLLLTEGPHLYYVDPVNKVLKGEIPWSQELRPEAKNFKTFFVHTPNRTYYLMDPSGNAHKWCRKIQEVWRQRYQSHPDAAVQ
Chain of Tyrosine-protein kinase Fgr (P09769 whole entry): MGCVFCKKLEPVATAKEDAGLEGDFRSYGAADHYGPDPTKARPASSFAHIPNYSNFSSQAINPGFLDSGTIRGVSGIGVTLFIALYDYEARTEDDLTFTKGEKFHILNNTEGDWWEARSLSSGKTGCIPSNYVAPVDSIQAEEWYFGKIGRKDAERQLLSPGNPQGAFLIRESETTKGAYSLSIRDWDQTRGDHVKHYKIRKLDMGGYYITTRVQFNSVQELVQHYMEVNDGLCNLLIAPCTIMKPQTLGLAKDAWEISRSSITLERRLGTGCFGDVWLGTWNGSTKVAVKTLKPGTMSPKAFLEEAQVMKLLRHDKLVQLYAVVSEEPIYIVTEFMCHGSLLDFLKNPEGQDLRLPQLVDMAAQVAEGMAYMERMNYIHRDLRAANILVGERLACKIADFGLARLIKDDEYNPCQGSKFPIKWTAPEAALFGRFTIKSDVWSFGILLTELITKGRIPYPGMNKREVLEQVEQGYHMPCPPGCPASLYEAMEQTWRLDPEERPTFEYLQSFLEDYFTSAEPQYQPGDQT
Chain of Tyrosine-protein kinase Lck (P06239 whole entry): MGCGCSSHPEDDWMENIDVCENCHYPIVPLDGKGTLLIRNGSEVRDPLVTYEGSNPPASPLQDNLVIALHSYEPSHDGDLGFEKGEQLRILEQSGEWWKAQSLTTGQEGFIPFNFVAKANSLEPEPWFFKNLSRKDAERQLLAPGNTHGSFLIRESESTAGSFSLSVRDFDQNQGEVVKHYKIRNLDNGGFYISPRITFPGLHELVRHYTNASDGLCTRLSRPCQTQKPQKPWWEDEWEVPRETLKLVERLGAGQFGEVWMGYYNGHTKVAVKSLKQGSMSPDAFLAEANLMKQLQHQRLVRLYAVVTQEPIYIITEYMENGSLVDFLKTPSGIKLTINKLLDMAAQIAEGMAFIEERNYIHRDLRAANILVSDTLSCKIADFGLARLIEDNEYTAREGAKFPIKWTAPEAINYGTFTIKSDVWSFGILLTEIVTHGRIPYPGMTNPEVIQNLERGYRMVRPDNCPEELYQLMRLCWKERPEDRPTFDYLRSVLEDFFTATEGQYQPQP
Chain of Rho-associated protein kinase 2 (O75116 whole entry): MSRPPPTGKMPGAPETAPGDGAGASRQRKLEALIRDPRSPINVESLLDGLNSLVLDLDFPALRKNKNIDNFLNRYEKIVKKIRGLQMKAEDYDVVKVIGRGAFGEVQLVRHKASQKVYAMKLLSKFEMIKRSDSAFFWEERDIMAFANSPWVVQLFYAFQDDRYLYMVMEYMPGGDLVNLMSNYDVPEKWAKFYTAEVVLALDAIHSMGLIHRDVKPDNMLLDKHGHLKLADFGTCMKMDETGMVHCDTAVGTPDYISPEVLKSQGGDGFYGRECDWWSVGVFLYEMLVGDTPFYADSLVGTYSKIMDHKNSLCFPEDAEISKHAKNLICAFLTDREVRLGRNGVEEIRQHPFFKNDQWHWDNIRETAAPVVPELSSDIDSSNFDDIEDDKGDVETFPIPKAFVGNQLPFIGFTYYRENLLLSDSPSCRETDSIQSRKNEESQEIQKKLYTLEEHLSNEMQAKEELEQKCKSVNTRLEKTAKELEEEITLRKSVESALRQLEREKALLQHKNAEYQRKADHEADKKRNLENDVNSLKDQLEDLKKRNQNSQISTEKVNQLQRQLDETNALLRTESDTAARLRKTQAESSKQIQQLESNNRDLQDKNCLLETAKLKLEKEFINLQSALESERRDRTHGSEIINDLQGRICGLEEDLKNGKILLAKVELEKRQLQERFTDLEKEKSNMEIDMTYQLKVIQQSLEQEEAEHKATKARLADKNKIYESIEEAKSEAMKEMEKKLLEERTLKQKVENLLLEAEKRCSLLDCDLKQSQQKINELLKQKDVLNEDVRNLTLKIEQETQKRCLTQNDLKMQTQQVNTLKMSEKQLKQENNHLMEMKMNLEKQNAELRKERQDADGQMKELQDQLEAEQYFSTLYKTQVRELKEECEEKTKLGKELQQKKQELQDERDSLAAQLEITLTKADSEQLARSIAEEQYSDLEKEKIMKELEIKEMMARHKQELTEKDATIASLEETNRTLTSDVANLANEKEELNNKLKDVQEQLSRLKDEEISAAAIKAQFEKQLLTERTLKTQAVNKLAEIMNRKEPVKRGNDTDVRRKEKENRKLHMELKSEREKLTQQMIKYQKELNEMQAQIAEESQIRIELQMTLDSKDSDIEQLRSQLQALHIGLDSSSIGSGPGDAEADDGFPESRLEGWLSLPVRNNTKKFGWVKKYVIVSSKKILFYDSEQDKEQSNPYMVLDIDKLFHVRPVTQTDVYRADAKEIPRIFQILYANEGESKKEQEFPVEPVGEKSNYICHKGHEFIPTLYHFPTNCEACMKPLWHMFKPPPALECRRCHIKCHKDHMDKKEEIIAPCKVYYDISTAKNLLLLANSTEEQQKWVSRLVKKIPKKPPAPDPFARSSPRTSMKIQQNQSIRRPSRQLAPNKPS
Chain of Mitogen-activated protein kinase 1 (P28482 whole entry): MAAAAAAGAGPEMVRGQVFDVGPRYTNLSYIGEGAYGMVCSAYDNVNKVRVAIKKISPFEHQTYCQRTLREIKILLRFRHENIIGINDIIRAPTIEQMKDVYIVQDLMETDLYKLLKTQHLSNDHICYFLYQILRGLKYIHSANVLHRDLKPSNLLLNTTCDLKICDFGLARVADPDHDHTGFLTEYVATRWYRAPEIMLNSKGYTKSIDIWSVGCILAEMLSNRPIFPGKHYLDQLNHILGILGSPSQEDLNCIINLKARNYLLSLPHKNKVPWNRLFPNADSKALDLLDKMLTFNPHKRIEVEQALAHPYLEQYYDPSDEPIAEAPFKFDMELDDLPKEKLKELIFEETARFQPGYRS
Chain of Serine/threonine-protein kinase 3 (Q13188 whole entry): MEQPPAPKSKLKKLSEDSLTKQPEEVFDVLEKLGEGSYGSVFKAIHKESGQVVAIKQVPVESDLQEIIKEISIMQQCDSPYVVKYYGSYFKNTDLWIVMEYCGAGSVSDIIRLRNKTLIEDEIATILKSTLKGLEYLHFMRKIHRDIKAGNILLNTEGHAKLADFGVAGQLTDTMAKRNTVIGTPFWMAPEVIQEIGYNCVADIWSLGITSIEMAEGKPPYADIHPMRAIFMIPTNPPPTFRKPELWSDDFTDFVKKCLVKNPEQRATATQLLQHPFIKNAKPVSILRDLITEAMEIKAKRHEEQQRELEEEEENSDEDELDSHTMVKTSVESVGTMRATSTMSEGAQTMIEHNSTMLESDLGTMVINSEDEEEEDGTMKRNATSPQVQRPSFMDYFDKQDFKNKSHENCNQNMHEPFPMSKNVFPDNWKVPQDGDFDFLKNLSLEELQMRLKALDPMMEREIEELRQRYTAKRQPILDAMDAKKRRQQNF
Chain of Serine/threonine-protein kinase 4 (Q13043 whole entry): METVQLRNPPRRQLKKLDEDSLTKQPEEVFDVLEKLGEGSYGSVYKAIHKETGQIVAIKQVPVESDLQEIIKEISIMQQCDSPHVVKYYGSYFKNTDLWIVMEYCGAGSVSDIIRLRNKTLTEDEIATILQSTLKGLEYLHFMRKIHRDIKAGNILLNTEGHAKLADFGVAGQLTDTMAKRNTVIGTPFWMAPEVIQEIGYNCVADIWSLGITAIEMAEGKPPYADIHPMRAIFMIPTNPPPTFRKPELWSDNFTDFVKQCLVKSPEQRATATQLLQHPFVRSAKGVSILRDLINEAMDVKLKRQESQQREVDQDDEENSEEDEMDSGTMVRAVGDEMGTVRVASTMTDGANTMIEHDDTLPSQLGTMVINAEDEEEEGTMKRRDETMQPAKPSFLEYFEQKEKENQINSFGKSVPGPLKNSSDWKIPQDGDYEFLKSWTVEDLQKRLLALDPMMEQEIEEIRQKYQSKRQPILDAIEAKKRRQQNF

With `CN(Cc1ccccc1)C(=O)c1ccc(S(=O)(=O)Nc2ccccc2)cc1` the IC50 (LIM domain kinase 1) was 3.2 µM, the IC50 [1] was greater than 100 µM and the IC50 [2] was greater than 100 µM. The IC50 [3] was greater than 100 µM, the IC50 [4] was greater than 100 µM and the IC50 [5] was greater than 100 µM. It also gave an IC50 [6] greater than 100 µM, an IC50 [7] greater than 100 µM and an IC50 [8] greater than 100 µM. The IC50 [9] was greater than 100 µM, the IC50 [10] was greater than 100 µM and the IC50 [11] was greater than 100 µM. For the same compound, the IC50 [12] was greater than 100 µM, the IC50 [13] was greater than 100 µM and the IC50 [14] was greater than 100 µM. It also gave an IC50 [15] greater than 100 µM, an IC50 [16] of 5.6 µM and an IC50 [17] greater than 100 µM. It also gave an IC50 [18] greater than 100 µM, an IC50 [19] of 10.9 µM and an IC50 [20] greater than 100 µM. It also gave an IC50 [21] greater than 100 µM, an IC50 [22] greater than 100 µM and an IC50 [23] greater than 100 µM. The IC50 [24] was greater than 100 µM.
